Laboratory results published in PubChem BioAssay (NCI).
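Values below derive from 48-hour exposures of cells grown in 96-well plates, with endpoints linearly interpolated between the two concentrations bracketing the appropriate inhibition level. At the GI50, growth is halved. TGI: total growth inhibition.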

Key:
Assay in all cases: NCI anticancer screen, dose series, 48 h
SK-MEL-28 melanoma = test system: SK-MEL-28 melanoma
NCI-H460 lung = test system: NCI-H460 lung
MDA-MB-435 = test system: MDA-MB-435
TK-10 renal = test system: TK-10 renal
U251 CNS = test system: U251 CNS
UACC-62 melanoma = test system: UACC-62 melanoma
OVCAR-4 ovarian = test system: OVCAR-4 ovarian
ACHN renal = test system: ACHN renal
MOLT-4 leukemia = test system: MOLT-4 leukemia
A549 NSCLC = test system: A549 NSCLC
NCI/ADR-RES ovarian = test system: NCI/ADR-RES ovarian
MCF7 breast = test system: MCF7 breast
UACC-257 melanoma = test system: UACC-257 melanoma
MDA-MB-231 breast = test system: MDA-MB-231 breast
HOP-92 NSCLC = test system: HOP-92 NSCLC
SK-MEL-5 melanoma = test system: SK-MEL-5 melanoma
HL-60(TB) leukemia = test system: HL-60(TB) leukemia
HCC-2998 colon = test system: HCC-2998 colon
UO-31 renal = test system: UO-31 renal
OVCAR-8 ovarian = test system: OVCAR-8 ovarian
RXF 393 renal = test system: RXF 393 renal
SK-MEL-2 melanoma = test system: SK-MEL-2 melanoma
SF-539 CNS = test system: SF-539 CNS
RPMI-8226 leukemia = test system: RPMI-8226 leukemia
EKVX NSCLC = test system: EKVX NSCLC
HS 578T breast = test system: HS 578T breast
M14 melanoma = test system: M14 melanoma
SN12C renal = test system: SN12C renal
CAKI-1 renal = test system: CAKI-1 renal
OVCAR-5 ovarian = test system: OVCAR-5 ovarian
SF-268 CNS = test system: SF-268 CNS
KM12 colon = test system: KM12 colon
NCI-H23 lung = test system: NCI-H23 lung
T-47D breast = test system: T-47D breast
K-562 leukemia = test system: K-562 leukemia
COLO 205 colon = test system: COLO 205 colon
IGROV1 ovarian = test system: IGROV1 ovarian
OVCAR-3 ovarian = test system: OVCAR-3 ovarian
CCRF-CEM leukemia = test system: CCRF-CEM leukemia
SW-620 colon = test system: SW-620 colon
SNB-19 CNS = test system: SNB-19 CNS
SF-295 CNS = test system: SF-295 CNS
SNB-75 CNS = test system: SNB-75 CNS
HCT-15 colon = test system: HCT-15 colon
HCT-116 colon = test system: HCT-116 colon
NCI-H522 lung = test system: NCI-H522 lung
HT29 colon = test system: HT29 colon
DU-145 prostate = test system: DU-145 prostate
SR leukemia = test system: SR leukemia
SK-OV-3 ovarian = test system: SK-OV-3 ovarian
BT-549 breast = test system: BT-549 breast
NCI-H226 lung = test system: NCI-H226 lung
PC-3 prostate = test system: PC-3 prostate
LOX IMVI melanoma = test system: LOX IMVI melanoma
786-0 renal = test system: 786-0 renal
HOP-62 NSCLC = test system: HOP-62 NSCLC
MALME-3M melanoma = test system: MALME-3M melanoma
A498 renal = test system: A498 renal

Work on `NC(CCOCCP(=O)(O)CCOCCC(N)C(=O)O)C(=O)O` (configuration not stated) yielded a TGI (SK-MEL-28 melanoma) greater than 100 µM, a TGI (NCI-H460 lung) greater than 100 µM and a TGI (MDA-MB-435) greater than 100 µM. It also gave a TGI (TK-10 renal) greater than 100 µM, a TGI (U251 CNS) greater than 100 µM and a TGI (UACC-62 melanoma) greater than 100 µM. The TGI (OVCAR-4 ovarian) was greater than 100 µM, the TGI (ACHN renal) was greater than 100 µM and the TGI (MOLT-4 leukemia) was greater than 100 µM. It also gave a TGI (A549 NSCLC) greater than 100 µM, a TGI (NCI/ADR-RES ovarian) greater than 100 µM and a TGI (MCF7 breast) greater than 100 µM. The TGI (UACC-257 melanoma) was greater than 100 µM, the TGI (MDA-MB-231 breast) was greater than 100 µM and the TGI (HOP-92 NSCLC) was greater than 100 µM. It also gave a TGI (SK-MEL-5 melanoma) greater than 100 µM, a TGI (HL-60(TB) leukemia) greater than 100 µM and a TGI (HCC-2998 colon) greater than 100 µM. For the same compound, the TGI (UO-31 renal) was greater than 100 µM, the TGI (OVCAR-8 ovarian) was greater than 100 µM and the TGI (RXF 393 renal) was greater than 100 µM. For the same compound, the TGI (SK-MEL-2 melanoma) was greater than 100 µM, the TGI (SF-539 CNS) was greater than 100 µM and the TGI (RPMI-8226 leukemia) was greater than 100 µM. For the same compound, the TGI (EKVX NSCLC) was greater than 100 µM, the TGI (HS 578T breast) was greater than 100 µM and the TGI (M14 melanoma) was greater than 100 µM. It also gave a TGI (SN12C renal) greater than 100 µM, a TGI (CAKI-1 renal) greater than 100 µM and a TGI (OVCAR-5 ovarian) greater than 100 µM. It also gave a TGI (SF-268 CNS) greater than 100 µM, a TGI (KM12 colon) greater than 100 µM and a TGI (NCI-H23 lung) greater than 100 µM. For the same compound, the TGI (T-47D breast) was greater than 100 µM, the TGI (K-562 leukemia) was greater than 100 µM and the TGI (COLO 205 colon) was greater than 100 µM. It also gave a TGI (IGROV1 ovarian) greater than 100 µM, a TGI (OVCAR-3 ovarian) greater than 100 µM and a TGI (CCRF-CEM leukemia) greater than 100 µM. It also gave a TGI (SW-620 colon) greater than 100 µM, a TGI (SNB-19 CNS) greater than 100 µM and a TGI (SF-295 CNS) greater than 100 µM. It also gave a TGI (SNB-75 CNS) greater than 100 µM, a TGI (HCT-15 colon) greater than 100 µM and a TGI (HCT-116 colon) greater than 100 µM. It also gave a TGI (NCI-H522 lung) greater than 100 µM, a TGI (HT29 colon) greater than 100 µM and a TGI (DU-145 prostate) greater than 100 µM. For the same compound, the TGI (SR leukemia) was greater than 100 µM and the TGI (SK-OV-3 ovarian) was greater than 100 µM.

In the case of `C=C1C(=O)O[C@H]2[C@H]1CC/C(COC(=O)c1ccc(C#N)cc1)=C\CC[C@@]1(C)O[C@@H]21`, the GI50 (SK-MEL-28 melanoma) is reported as 2.2 µM, the TGI (SK-MEL-28 melanoma) is reported as 4.82 µM and the GI50 (NCI-H460 lung) is reported as 3.46 µM. It also gave a TGI (NCI-H460 lung) of 14.5 µM, a GI50 (BT-549 breast) of 1.44 µM and a TGI (BT-549 breast) of 3.15 µM. The GI50 (MDA-MB-435) was 1.96 µM, the TGI (MDA-MB-435) was 4.53 µM and the GI50 (TK-10 renal) was 3.99 µM. The TGI (TK-10 renal) was 10.8 µM, the GI50 (U251 CNS) was 2.86 µM and the TGI (U251 CNS) was 10.3 µM. For the same compound, the GI50 (UACC-62 melanoma) was 1.95 µM, the TGI (UACC-62 melanoma) was 4.33 µM and the GI50 (NCI-H226 lung) was 2.26 µM. It also gave a TGI (NCI-H226 lung) of 7.6 µM, a GI50 (OVCAR-4 ovarian) of 2.88 µM and a TGI (OVCAR-4 ovarian) of 9.39 µM. It also gave a GI50 (ACHN renal) of 1.85 µM, a TGI (ACHN renal) of 4.26 µM and a GI50 (MOLT-4 leukemia) of 2.37 µM. It also gave a TGI (MOLT-4 leukemia) of 6.52 µM, a GI50 (A549 NSCLC) of 6 µM and a TGI (A549 NSCLC) of 20.5 µM. The GI50 (PC-3 prostate) was 3.97 µM, the TGI (PC-3 prostate) was 15.6 µM and the GI50 (NCI/ADR-RES ovarian) was 4.25 µM. It also gave a TGI (NCI/ADR-RES ovarian) of 18.8 µM, a GI50 (UACC-257 melanoma) of 1.69 µM and a TGI (UACC-257 melanoma) of 4.1 µM. For the same compound, the GI50 (MDA-MB-231 breast) was 2.2 µM, the TGI (MDA-MB-231 breast) was 5.24 µM and the GI50 (HOP-92 NSCLC) was 1.59 µM. For the same compound, the TGI (HOP-92 NSCLC) was 3.8 µM, the GI50 (SK-MEL-5 melanoma) was 1.85 µM and the TGI (SK-MEL-5 melanoma) was 3.75 µM. The GI50 (HL-60(TB) leukemia) was 1.67 µM, the TGI (HL-60(TB) leukemia) was 7.47 µM and the GI50 (HCC-2998 colon) was 4.1 µM. The TGI (HCC-2998 colon) was 14.3 µM, the GI50 (LOX IMVI melanoma) was 1.56 µM and the TGI (LOX IMVI melanoma) was 2.99 µM. The GI50 (UO-31 renal) was 1.57 µM, the TGI (UO-31 renal) was 3.34 µM and the GI50 (OVCAR-8 ovarian) was 2.75 µM. For the same compound, the TGI (OVCAR-8 ovarian) was 11.2 µM, the GI50 (RXF 393 renal) was 1.03 µM and the TGI (RXF 393 renal) was 2.32 µM. For the same compound, the GI50 (SK-MEL-2 melanoma) was 1.98 µM, the TGI (SK-MEL-2 melanoma) was 4.54 µM and the GI50 (SF-539 CNS) was 1.64 µM. It also gave a TGI (SF-539 CNS) of 3.28 µM, a GI50 (786-0 renal) of 1.92 µM and a TGI (786-0 renal) of 3.99 µM. The GI50 (RPMI-8226 leukemia) was 1.5 µM, the TGI (RPMI-8226 leukemia) was 4.61 µM and the GI50 (EKVX NSCLC) was 2.26 µM. For the same compound, the TGI (EKVX NSCLC) was 6.85 µM, the GI50 (HS 578T breast) was 3.04 µM and the TGI (HS 578T breast) was 15.9 µM. For the same compound, the GI50 (M14 melanoma) was 1.69 µM, the TGI (M14 melanoma) was 3.64 µM and the GI50 (SN12C renal) was 2.22 µM. For the same compound, the TGI (SN12C renal) was 5.75 µM, the GI50 (OVCAR-5 ovarian) was 3.06 µM and the TGI (OVCAR-5 ovarian) was 9.51 µM. The GI50 (SF-268 CNS) was 2.2 µM, the TGI (SF-268 CNS) was 5.09 µM and the GI50 (KM12 colon) was 3.94 µM. The TGI (KM12 colon) was 14.8 µM, the GI50 (NCI-H23 lung) was 2.25 µM and the TGI (NCI-H23 lung) was 6 µM. The GI50 (HOP-62 NSCLC) was 7.43 µM, the TGI (HOP-62 NSCLC) was 22.6 µM and the GI50 (T-47D breast) was 1.74 µM. The TGI (T-47D breast) was 5.24 µM, the GI50 (K-562 leukemia) was 1.94 µM and the TGI (K-562 leukemia) was 13 µM. The GI50 (COLO 205 colon) was 1.63 µM, the TGI (COLO 205 colon) was 3.81 µM and the GI50 (IGROV1 ovarian) was 1.38 µM. The TGI (IGROV1 ovarian) was 4.27 µM, the GI50 (OVCAR-3 ovarian) was 1.36 µM and the TGI (OVCAR-3 ovarian) was 2.75 µM. The GI50 (CCRF-CEM leukemia) was 0.906 µM, the TGI (CCRF-CEM leukemia) was 6.47 µM and the GI50 (SW-620 colon) was 1.27 µM. The TGI (SW-620 colon) was 2.88 µM, the GI50 (SNB-19 CNS) was 3.9 µM and the TGI (SNB-19 CNS) was 15.1 µM. For the same compound, the GI50 (MALME-3M melanoma) was 2.04 µM, the TGI (MALME-3M melanoma) was 4.16 µM and the GI50 (SF-295 CNS) was 8.16 µM. The TGI (SF-295 CNS) was 20.7 µM, the GI50 (SNB-75 CNS) was 7.23 µM and the TGI (SNB-75 CNS) was 21.4 µM. It also gave a GI50 (HCT-15 colon) of 1.44 µM, a TGI (HCT-15 colon) of 3.22 µM and a GI50 (HCT-116 colon) of 1.42 µM. For the same compound, the TGI (HCT-116 colon) was 2.77 µM, the GI50 (NCI-H522 lung) was 1.55 µM and the TGI (NCI-H522 lung) was 3.35 µM. For the same compound, the GI50 (HT29 colon) was 1.62 µM, the TGI (HT29 colon) was 4.02 µM and the GI50 (A498 renal) was 15.4 µM. For the same compound, the TGI (A498 renal) was 30 µM, the GI50 (DU-145 prostate) was 1.5 µM and the TGI (DU-145 prostate) was 2.83 µM. For the same compound, the GI50 (SR leukemia) was 0.548 µM, the TGI (SR leukemia) was greater than 100 µM and the GI50 (SK-OV-3 ovarian) was 15.8 µM. For the same compound, the TGI (SK-OV-3 ovarian) was 29.2 µM.
